In ChEMBL document CHEMBL4261650, “Identification of Cyanamide-Based Janus Kinase 3 (JAK3) Covalent Inhibitors” (J Med Chem, 2018):
One block for each compound: values may come before it.

Experiments:
[1] = GSH reactivity in phosphate buffer assessed as half life at 20 uM after 1 hr in presence of L-glutathione by LC-MS/MS analysis; assay type: physicochemical; settings: phosphate buffer with L-glutathione
[2] = Apparent permeability across apical to basolateral side in RRCK cells after […] by HPLC analysis; assay type: ADME, cell-based, Canis lupus familiaris, MDCKII-LE; settings: dog, MDCK
[3] = Drug level in human liver microsomes treated with 10 uM N-(6-(7H-Pyrrolo[2,3-d]pyrimidin-4-yl)-2,3-dihydro-1H-inden-1-yl)cyanamide (11), (S)-N-(6-(7H-Pyrrolo[2,3-d]pyrimidin-4-yl)-2,3-dihydro-1H-inden-1-yl)cyanamide assessed as compound formation at 10 uM in presence of GSH and NADPH after 15 to 45 mins by LC-MS/MS analysis; assay type: ADME, microsome
[4] = Half life in rat whole blood; assay type: ADME, tissue-based
[5] = Half life in human whole blood; assay type: ADME, tissue-based
[6] = AUC in rat at 1 mg/kg, iv administered as single dose by LC-MS/MS analysis; assay type: ADME, organism-based; settings: in vivo
[7] = AUC in rat at 3 mg/kg, po administered as single dose by LC-MS/MS analysis; assay type: ADME, organism-based; settings: in vivo
[8] = AUC in rat at 1 mg/kg, iv co-administered with CYP450 inhibitor ABT by LC-MS/MS analysis; assay type: ADME, organism-based; settings: in vivo
[9] = Half life in rat at 1 mg/kg, iv administered as single dose by LC-MS/MS analysis; assay type: ADME, organism-based; settings: in vivo
[10] = Half life in rat at 1 mg/kg, iv co-administered with CYP450 inhibitor ABT by LC-MS/MS analysis; assay type: ADME, organism-based; settings: in vivo
[11] = Oral bioavailability in rat at 3 mg/kg administered as single dose by LC-MS/MS analysis; assay type: ADME, organism-based; settings: in vivo
[12] = Clearance in rat at 1 mg/kg, iv administered as single dose by LC-MS/MS analysis; assay type: ADME, organism-based; settings: in vivo
[13] = Clearance in rat at 1 mg/kg, iv co-administered with CYP450 inhibitor ABT by LC-MS/MS analysis; assay type: ADME, organism-based; settings: in vivo
[14] = Volume of distribution at steady state in rat at 1 mg/kg, iv administered as single dose by LC-MS/MS analysis; assay type: ADME, organism-based; settings: in vivo, read-out: Vdss
[15] = Volume of distribution at steady state in rat at 1 mg/kg, iv co-administered with CYP450 inhibitor ABT by LC-MS/MS analysis; assay type: ADME, organism-based; settings: in vivo, read-out: Vdss
[16] = Drug metabolism in human liver microsomes assessed as 2-((R)-3-(N-((S)-6-(7H-pyrrolo[2,3-d]pyrimidin-4-yl)-2,3-dihydro-1H-inden-1-yl)carbamimidoylthio)-2-aminopropanamido)acetic acid metabolite formation at 10 uM in presence of GSH and NADPH after 15 to 45 mins by LC-MS/MS analysis; assay type: ADME, microsome
[17] = Drug metabolism in human liver microsomes assessed as (S)-1-(6-(7H-pyrrolo[2,3-d]pyrimidin-4-yl)-2,3-dihydro-1H-inden-1-yl)urea metabolite formation at 10 uM in presence of GSH and NADPH after 15 to 45 mins by LC-MS/MS analysis; assay type: ADME, microsome
[18] = Drug metabolism in human liver microsomes assessed as (S)-4-amino-6-(3-cyanamido-2,3-dihydro-1H-inden-5-yl)pyrimidine-5-carboxylic acid metabolite formation at 10 uM in presence of GSH and NADPH after 15 to 45 mins by LC-MS/MS analysis; assay type: ADME, microsome
[19] = Apparent intrinsic clearance in rat liver microsomes; assay type: ADME, microsome; settings: read-out: CLH(app)
[20] = Apparent intrinsic clearance in human liver microsomes; assay type: ADME, microsome; settings: read-out: CLH(app)
[21] = Covalent reactivity with N-alpha-acetyl-L-lysine assessed as half life; assay type: physicochemical; settings: N-alpha-acetyl-L-lysine solution

SMILES: N=C(N[C@H]1CCc2ccc(-c3ncnc4[nH]ccc34)cc21)SC[C@H](N)C(=O)NCC(=O)O
Drug metabolism [3]: Metabolite_Detected

SMILES: N=C(N[C@H]1CCc2ccc(-c3ncnc4[nH]ccc34)cc21)SC[C@H](NC(=O)CC[C@H](N)C(=O)O)C(=O)NCC(=O)O
Drug metabolism [3]: Metabolite_Detected

SMILES: C[C@]1(NC#N)CCc2ccc(-c3ncnc4[nH]ccc34)cc21
half-life at 20 µM [1]: > 2 h
half-life [4]: > 6 h
half-life [5]: > 6 h
Papp A→B at […] [2]: 19 ×10⁻⁶ cm/s

SMILES: C=CC(=O)N1CCOc2ccc(-c3ncnc4[nH]cc(CCOC)c34)cc21
half-life at 20 µM [1]: 0.05 h
half-life [4]: 0.0667 h
half-life [5]: 0.0833 h

SMILES: Cn1nccc1S(=O)(=O)N[C@@H]1C[C@H](NC#N)c2cc(-c3ncnc4[nH]ccc34)ccc21
half-life at 20 µM [1]: 0.367 h

SMILES: N#CN[C@@H]1c2cc(-c3ncnc4[nH]ccc34)ccc2C[C@H]1O
half-life at 20 µM [1]: 0.783 h

SMILES: C[C@@H]1Cc2ccc(-c3ncnc4[nH]ccc34)cc2[C@@H]1NC#N
half-life at 20 µM [1]: 1.58 h

SMILES: COCCc1c[nH]c2ncnc(-c3ccc4c(c3)N(C#N)CC(F)(F)O4)c12
half-life at 20 µM [1]: > 2 h
Papp A→B at […] [2]: 14 ×10⁻⁶ cm/s

SMILES: COCCc1c[nH]c2ncnc(-c3ccc4c(c3)C(NC#N)CCO4)c12 (stereo unspecified)
half-life at 20 µM [1]: 1.17 h

SMILES: N#CN[C@H]1CCc2ccc(-c3ncnc4[nH]cc(-c5ccccc5)c34)cc21
half-life at 20 µM [1]: 1.57 h
half-life [4]: 1.02 h
half-life [5]: 1.02 h
Papp A→B at […] [2]: 2 ×10⁻⁶ cm/s

SMILES: N#CNC1CCOc2ccc(-c3ncnc4[nH]ccc34)cc21 (stereo unspecified)
half-life at 20 µM [1]: 0.6 h

SMILES: COCCS(=O)(=O)N[C@@H]1C[C@H](NC#N)c2cc(-c3ncnc4[nH]ccc34)ccc21
half-life at 20 µM [1]: 1.17 h

SMILES: C[C@@]1(NC#N)CCc2ccc(-c3ncnc4[nH]ccc34)cc21
half-life at 20 µM [1]: > 2 h

SMILES: CS(=O)(=O)N[C@@H]1C[C@H](NC#N)c2cc(-c3ncnc4[nH]ccc34)ccc21
half-life at 20 µM [1]: 0.383 h
half-life [4]: 0.517 h
half-life [5]: 3.47 h
Papp A→B at […] [2]: < 1 ×10⁻⁶ cm/s

SMILES: N#CN[C@H]1CCc2ccc(-c3ncnc4[nH]cc(-c5cccc(CO)c5)c34)cc21
half-life at 20 µM [1]: 1.15 h
half-life [4]: 0.983 h
half-life [5]: 0.8 h
Papp A→B at […] [2]: 4 ×10⁻⁶ cm/s

SMILES: COCCc1c[nH]c2ncnc(-c3ccc4c(c3)N(C#N)CCO4)c12
half-life at 20 µM [1]: > 3.17 h

SMILES: C1CNC1 [AZETIDINE]
half-life [21]: 2.59 h

SMILES: C1CCNCC1 [PIPERIDINE]
half-life [21]: 11.1 h

SMILES: C1CCNC1 [PYRROLIDINE]
half-life [21]: 7.7 h

Further lines, results first:

half-life at 20 µM [1]: 1.35 h
SMILES: N#CN[C@@H]1CCc2ccc(-c3ncnc4[nH]ccc34)cc21

half-life at 20 µM [1]: 0.583 h
SMILES: COc1ccc(S(=O)(=O)N[C@@H]2C[C@H](NC#N)c3cc(-c4ncnc5[nH]ccc45)ccc32)cc1

half-life at 20 µM [1]: 1.33 h
Papp A→B at […] [2]: 10 ×10⁻⁶ cm/s
SMILES: N#CN[C@H]1C[C@@H](NS(=O)(=O)c2cccc(F)c2)c2ccc(-c3ncnc4[nH]ccc34)cc21

half-life at 20 µM [1]: > 3.17 h
SMILES: CN(C#N)C1CCc2ccc(-c3ncnc4[nH]ccc34)cc21 (stereo unspecified)

half-life at 20 µM [1]: 1.15 h
half-life [4]: 2.5 h
half-life [5]: > 6 h
AUC [6]: 466 ng·h/mL
AUC [7]: 240 ng·h/mL
AUC [8]: 488 ng·h/mL
half-life [9]: 0.27 h
half-life [10]: 0.75 h
bioavailability [11]: 16%
clearance [12]: 36 mL/min/kg
clearance [13]: 34 mL/min/kg
Vd [14]: 0.35 L/kg
Vd [15]: 0.63 L/kg
Papp A→B at […] [2]: 11 ×10⁻⁶ cm/s
Drug metabolism [16]: Metabolite_Detected
Drug metabolism [17]: Metabolite_Detected
Drug metabolism [18]: Metabolite_Detected
microsomal CLint [19]: 100 µL/min/mg
microsomal CLint [20]: 50 µL/min/mg
SMILES: N#CN[C@H]1CCc2ccc(-c3ncnc4[nH]ccc34)cc21

half-life at 20 µM [1]: 1.23 h
SMILES: COCCc1c[nH]c2ncnc(-c3ccc4c(c3)C(NC#N)CC4)c12 (stereo unspecified)

half-life at 20 µM [1]: 0.683 h
SMILES: N#CN[C@H]1CCOc2ccc(-c3ncnc4[nH]ccc34)cc21

half-life at 20 µM [1]: 0.4 h
Papp A→B at […] [2]: 6 ×10⁻⁶ cm/s
SMILES: N#CN[C@H]1C[C@@H](NS(=O)(=O)c2cccc(C#N)c2)c2ccc(-c3ncnc4[nH]ccc34)cc21

Drug metabolism [3]: Metabolite_Detected
SMILES: NC(=O)N[C@H]1CCc2ccc(-c3ncnc4[nH]ccc34)cc21

half-life at 20 µM [1]: 0.667 h
SMILES: N#CN[C@H]1C[C@H](O)c2ccc(-c3ncnc4[nH]ccc34)cc21

Drug metabolism [3]: Metabolite_Detected
SMILES: N#CN[C@H]1CCc2ccc(-c3ncnc(N)c3C(=O)O)cc21

half-life at 20 µM [1]: 0.933 h
half-life [4]: 0.483 h
half-life [5]: 2.47 h
clearance [12]: 455 mL/min/kg
Papp A→B at […] [2]: 10 ×10⁻⁶ cm/s
SMILES: C=CC(=O)Nc1cccc(-c2ncnc3[nH]cc(CCOC)c23)c1

half-life at 20 µM [1]: 1.12 h
SMILES: N#CNC1CCc2ccc(-c3ncnc4[nH]ccc34)cc21 (stereo unspecified)

half-life at 20 µM [1]: > 2 h
SMILES: CC1(NC#N)CCc2ccc(-c3ncnc4[nH]ccc34)cc21 (stereo unspecified)

half-life at 20 µM [1]: 0.467 h
half-life [4]: 0.333 h
half-life [5]: 5.65 h
Papp A→B at […] [2]: 2 ×10⁻⁶ cm/s
SMILES: N#CN[C@H]1C[C@@H](O)c2ccc(-c3ncnc4[nH]ccc34)cc21
